Assay results as given in patent US20240181087A1, “COMPOSITION FOR CONTRAST IMAGING OF CANCER” (ASTELLAS PHARMA INC., priority 2021, published 2024).

System: mouse tumor cell 4T1
Assay: near-infrared fluorescence imaging after administration into tumor, 4T1 breast cancer model
Type: in vivo
Details: 4T1 tumor, 1 mg/mL saline, fluorescence imaging, incl. during tumor excision operation
Text: A syngeneic tumor transplanted mouse model was created as follows referring to “Gan-Shikkan Model no Sakusei to Riyo (Cancer-Creation and Use of Disease Model)” (Takuro Nakamura, LIC, 2012). • (Breast Cancer) A tumor model was created by breeding a normal Balb/c mouse (weight: about 20 g to 30 g) for 14 days with mouse tumor cell 4T1 subcutaneously administered thereto. • (Colorectal Cancer) A tumor model was created by breeding a normal Balb/c mouse (weight: about 20 g to 30 g) for 14 days with CT26 (colorectal cancer cell) subcutaneously administered thereto. • (Skin Cancer) A tumor model was created by breeding a C57BL/6 mouse (weight: about 15 g to 20 g) for 14 days with B16F1 (skin cancer cell) subcutaneously administered thereto.
Subsequently, to the tumor of each of the model mice, 0.02 to 0.05 mL of a saline containing the compound III or ICG (concentration of the compound III or ICG: 1 mg/mL) was administered, and fluorescence imaging was performed transdermally with a near-infrared fluorescence camera (Fluobeam, manufactured by Fluoptics, http://www.solve-net.com/info/wp-content/uploads/downloads/2013/12/Fluobeam.pdf) (excitation wavelength: 780 nm, detection wavelength: 800 nm or more).

## CC1(C)C(/C=C/C=C/C=C/C=C2\N(CCCCS(=O)(=O)O)c3ccc4ccccc4c3C2(C)C)=[N+](CCCCS(=O)(=O)[O-])c2ccc3ccccc3c21 [ICG, indocyanine green, reference compound]
  drawing of tumor outline / exudation to surrounding tissues: fluorescence signals were emitted outside the tumor tissue, and the outline of the tumor could not be drawn
